Assay results reported in ChEMBL document CHEMBL4354862, “Peptidomimetic Vinyl Heterocyclic Inhibitors of Cruzain Effect Antitrypanosomal Activity” (J Med Chem, 2020).
One block for each compound: values may come before it.

Tests used:
NHDF = experiment: Cytotoxicity against HDF cells assessed as reduction in cell viability measured after 48 hrs by resazurin dye based fluorescence assay; conditions: human
[1] = Solubility of the compound in 10% DMSO v/v at 1 to 200 uM measured up to 120 mins; format: physicochemical; conditions: 2 h
[2] = molecular target: Cruzipain (Trypanosoma cruzi) (UniProt P25779); experiment: Reversible inhibition of Trypanosoma cruzi cruzain assessed as rate constant K4 using Cbz-Phe-Arg-AMC as substrate preincubated for 1 hr followed by enzyme-compound mixture dilution in presence of substrate by fluorescence assay
Cruzipain (Trypanosoma cruzi), sequence (P25779 123-467 limits assumed): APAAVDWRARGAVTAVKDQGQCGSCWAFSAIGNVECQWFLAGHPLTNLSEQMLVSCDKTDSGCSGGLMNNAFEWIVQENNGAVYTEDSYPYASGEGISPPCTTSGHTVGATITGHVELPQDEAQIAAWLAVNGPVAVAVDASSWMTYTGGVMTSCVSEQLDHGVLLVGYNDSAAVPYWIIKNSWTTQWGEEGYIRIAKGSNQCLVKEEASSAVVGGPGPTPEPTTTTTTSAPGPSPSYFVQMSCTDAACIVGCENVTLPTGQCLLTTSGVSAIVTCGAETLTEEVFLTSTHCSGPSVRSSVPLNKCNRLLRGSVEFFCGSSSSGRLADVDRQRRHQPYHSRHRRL

C2C12 = experiment: Cytotoxicity against mouse C2C12 cells assessed as reduction in cell viability measured after 48 hrs by 4',6-diamidino-2-phenylindole staining based microscopic analysis; conditions: c2c12, 48 h
[3] = Glutathione reactivity of the compound in 10% DMSO (v/v)/pH 8 Tris buffer assessed as GSH adduct formation by measuring rate of-thiolation at 2:1 molar ratio of GSH/inhibitor by HPLC-MS analysis; format: ADME
[4] = Glutathione reactivity of the compound in 10% DMSO (v/v)/pH 8 Tris buffer assessed as GSH adduct formation by measuring equilibrium constant measured after 90 mins by HPLC-MS analysis; format: ADME
[5] = Glutathione reactivity of the compound in 10% DMSO (v/v)/pH 8 Tris buffer assessed as GSH adduct formation by measuring retention time at 0.5 mM by HPLC-MS analysis; format: ADME; conditions: pH 8, 500 µM
Cathepsin B = Cathepsin B (Homo sapiens, UniProt P07858); experiment: Inhibition of human Cathepsin B assessed as rate constant for enzyme-inhibitor-substrate complex using Cbz-Phe-Arg-AMC as substrate measured up to 40 mins by fluorescence assay
[6] = test system: Trypanosoma brucei brucei; experiment: Antitrypanosomal activity against Trypanosoma brucei brucei ATCC PRA-381 procyclic trypomastigotes supplemented with fresh medium containing compound daily for 4 days by coulter counting method; format: functional, organism-based; conditions: ATCC PRA-381, 96 h
[7] = Selectivity ratio of Ki for human Cathepsin B to Ki for Trypanosoma cruzi cruzain; format: toxicity
Cruzipain [8] = molecular target: T1, Cruzipain (Trypanosoma cruzi, UniProt P25779); experiment: Inhibition of Trypanosoma cruzi cruzain assessed as rate constant for enzyme-inhibitor complex using Cbz-Phe-Arg-AMC as substrate and measured up to 40 mins by fluorescence assay; conditions: read-out: Ki(app)
T1 sequence (P25779 whole entry): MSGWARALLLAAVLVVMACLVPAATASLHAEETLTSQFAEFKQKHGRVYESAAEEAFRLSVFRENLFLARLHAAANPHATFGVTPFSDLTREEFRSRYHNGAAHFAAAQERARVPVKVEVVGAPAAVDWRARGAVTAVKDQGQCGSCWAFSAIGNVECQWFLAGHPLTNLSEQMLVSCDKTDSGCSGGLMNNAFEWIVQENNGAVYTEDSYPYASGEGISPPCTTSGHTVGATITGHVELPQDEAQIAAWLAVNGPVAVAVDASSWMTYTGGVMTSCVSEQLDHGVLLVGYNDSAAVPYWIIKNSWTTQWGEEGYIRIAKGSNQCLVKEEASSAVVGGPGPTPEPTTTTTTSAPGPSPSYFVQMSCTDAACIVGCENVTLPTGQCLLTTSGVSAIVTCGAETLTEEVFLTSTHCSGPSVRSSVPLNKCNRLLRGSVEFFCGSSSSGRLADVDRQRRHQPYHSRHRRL

Trypanosoma cruzi [9] = experiment: Antitrypanosomal activity against axenic cultures of Trypanosoma cruzi Y ATCC 50832GFP epimastigotes supplemented with fresh medium containing compound daily for 5 days by coulter counting method; format: functional, organism-based; conditions: 120 h
[10] = test system: Trypanosoma brucei brucei; experiment: Antitrypanosomal activity against Trypanosoma brucei brucei ATCC PRA-383 bloodstream forms supplemented with fresh medium containing compound daily for 4 days by coulter counting method; conditions: ATCC PRA-383, 96 h
[11] = Selectivity index, ratio of CC50 for HDF cells to EC50 for Trypanosoma cruzi Ca-I/72 infected in mouse C2C12 cells; format: toxicity, cell-based; conditions: read-out: Ratio CC50/EC50
Cathepsin S = Cathepsin S (Homo sapiens, UniProt P25774); experiment: Inhibition of recombinant human Cathepsin S expressed in Escherichia coli assessed as rate constant for enzyme-inhibitor-substrate complex using Cbz-Phe-Arg-AMC as substrate measured up to 40 mins by fluorescence assay
Cathepsin S, sequence (P25774 whole entry): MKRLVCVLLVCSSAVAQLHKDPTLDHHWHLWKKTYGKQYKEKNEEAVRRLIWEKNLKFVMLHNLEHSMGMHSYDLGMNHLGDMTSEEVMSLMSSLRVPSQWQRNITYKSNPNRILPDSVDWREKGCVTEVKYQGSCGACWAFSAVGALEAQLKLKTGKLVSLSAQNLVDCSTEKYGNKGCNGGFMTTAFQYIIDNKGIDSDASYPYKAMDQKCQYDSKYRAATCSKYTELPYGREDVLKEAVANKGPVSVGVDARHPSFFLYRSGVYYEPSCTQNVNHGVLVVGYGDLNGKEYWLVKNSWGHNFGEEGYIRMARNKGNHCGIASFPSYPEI

Trypanosoma cruzi [12] = experiment: Antitrypanosomal activity against Trypanosoma cruzi Ca-I/72 infected in mouse C2C12 cells measured after 48 hrs by 4',6-diamidino-2-phenylindole staining based microscopic analysis; format: functional, organism-based; conditions: Ca-I/72, C2C12, 48 h
Cruzipain [13] = molecular target: T1, Cruzipain; experiment: Inhibition of Trypanosoma cruzi cruzain using Cbz-Phe-Arg-AMC as substrate and measured up to 40 mins by fluorescence assay
Procathepsin L = Procathepsin L (Homo sapiens, UniProt P07711); experiment: Inhibition of human Cathepsin L assessed as rate constant for enzyme-inhibitor-substrate complex using Cbz-Phe-Arg-AMC as substrate measured up to 40 mins by fluorescence assay
Procathepsin L, sequence (P07711 whole entry): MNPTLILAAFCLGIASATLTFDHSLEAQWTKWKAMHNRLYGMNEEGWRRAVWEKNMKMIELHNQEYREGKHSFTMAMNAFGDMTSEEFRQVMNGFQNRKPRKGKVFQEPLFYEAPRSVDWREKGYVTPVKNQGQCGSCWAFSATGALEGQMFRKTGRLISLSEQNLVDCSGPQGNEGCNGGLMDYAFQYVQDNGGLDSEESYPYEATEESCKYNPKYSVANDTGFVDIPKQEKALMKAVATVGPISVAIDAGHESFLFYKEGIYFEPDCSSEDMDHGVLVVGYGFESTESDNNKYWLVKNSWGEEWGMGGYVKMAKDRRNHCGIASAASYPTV

[14] = Selectivity ratio of Ki for human Cathepsin L to Ki for Trypanosoma cruzi cruzain; format: toxicity
[15] = Selectivity ratio of Ki for human Cathepsin S to Ki for Trypanosoma cruzi cruzain; format: toxicity
[16] = molecular target: Cruzipain (Trypanosoma cruzi) (UniProt P25779); experiment: Reversible inhibition of Trypanosoma cruzi cruzain assessed as rate constant K3 using Cbz-Phe-Arg-AMC as substrate preincubated for 1 hr followed by enzyme-compound mixture dilution in presence of substrate by fluorescence assay
Trypanosoma cruzi [17] = experiment: Potency index, ratio of K11777 IC50 to test compound IC50 for axenic cultures of Trypanosoma cruzi Y ATCC 50832GFP epimastigotes; format: functional
[18] = molecular target: Cruzipain (Trypanosoma cruzi) (UniProt P25779); experiment: Irreversible inhibition of Trypanosoma cruzi cruzain assessed as ratio of Kinact to Ki using Cbz-Phe-Arg-AMC as substrate by fluorescence assay
[19] = Glutathione reactivity of the compound in 10% DMSO (v/v)/pH 8 Tris buffer assessed as GSH adduct formation by measuring rate of-thiolation at 0.5 mM by HPLC-MS analysis; format: ADME; conditions: pH 8, 500 µM
Trypanosoma cruzi [20] = experiment: Antitrypanosomal activity against Trypanosoma cruzi Brazil epimastigotes measured after 48 hrs by [3H]thymidine incorporation based beta-counting method; format: functional, organism-based

solubility [1]: >= 100 uM
K [2]: 0.0018 s⁻¹
SMILES: O=C(N[C@@H](Cc1ccccc1)C(=O)N[C@H](/C=C/c1ncccn1)Cc1ccccc1)OCc1ccccc1
CC50 (NHDF): > 100 µM
CC50 (C2C12): > 10 µM

K [3]: 0.015 mM⁻¹ s⁻¹
Ke [4]: 930 M⁻¹
Retention_time [5]: 3.61 min
SMILES: C[n+]1ccsc1/C=C/[C@H](Cc1ccccc1)NC(=O)[C@H](Cc1ccccc1)NC(=O)OCc1ccccc1.[I-]

SMILES: C[n+]1ccccc1/C=C/[C@H](CCc1ccccc1)NC(=O)[C@H](Cc1ccccc1)NC(=O)OCc1ccccc1
Ki (Cathepsin B): 37 µM
EC50 [6]: 5.9 µM
Ratio Ki [7]: > 10
Ki (Cruzipain [8]): 0.76 µM
EC50 (Trypanosoma cruzi [9]): 2.1 µM
K [3]: 0.054 mM⁻¹ s⁻¹
EC50 [10]: 2.8 µM
selectivity ratio [11]: > 20
Ki (Cathepsin S): 320 nM
CC50 (NHDF): > 100 µM
EC50 (Trypanosoma cruzi [12]): 5.4 µM
Ki (Cruzipain [13]): 2 to 4.3 µM
solubility [1]: >= 50 uM
Ki (Procathepsin L): 880 nM
K [2]: 0.00019 s⁻¹
Ratio Ki [14]: > 10
Ke [4]: 2400 M⁻¹
Ratio Ki [15]: > 10
Retention_time [5]: 4.72 min
CC50 (C2C12): > 10 µM
K [16]: 0.0012 to 0.004 s⁻¹
Ratio IC50 (Trypanosoma cruzi [17]): 10

SMILES: O=C(N[C@@H](Cc1ccccc1)C(=O)N[C@H](/C=C/c1ccccn1)CCc1ccccc1)OCc1ccccc1
EC50 [6]: > 10 µM
EC50 (Trypanosoma cruzi [9]): > 20 µM
EC50 [10]: 4 µM
CC50 (NHDF): > 100 µM
EC50 (Trypanosoma cruzi [12]): 5.9 µM
CC50 (C2C12): > 10 µM

SMILES: O=C(N[C@@H](Cc1ccccc1)C(=O)N[C@H](/C=C/c1ncccn1)CCc1ccccc1)OCc1ccccc1
Ki (Cruzipain [8]): > 35 µM

kinact/Ki [18]: 21.7 M⁻¹ s⁻¹
SMILES: NC(=O)/C=C/[C@H](Cc1ccccc1)NC(=O)[C@H](Cc1ccccc1)NC(=O)OCc1ccccc1

SMILES: O=C(N[C@@H](Cc1ccccc1)C(=O)N[C@H](/C=C/c1ccccn1)Cc1ccccc1)OCc1ccccc1
EC50 (Trypanosoma cruzi [9]): > 20 µM
CC50 (NHDF): > 100 µM
solubility [1]: <= 30 uM
K [2]: 0.0012 s⁻¹
CC50 (C2C12): > 10 µM

kinact/Ki [18]: 1900 M⁻¹ s⁻¹
SMILES: CN1CCN(C(=O)N[C@@H](Cc2ccccc2)C(=O)N[C@H](/C=C/C(N)=O)CCc2ccccc2)CC1

solubility [1]: <= 2 uM
SMILES: O=C(N[C@@H](Cc1ccccc1)C(=O)N[C@H](/C=C/c1ccccc1)Cc1ccccc1)OCc1ccccc1

SMILES: C[n+]1ccccc1/C=C/[C@H](Cc1ccccc1)NC(=O)[C@H](Cc1ccccc1)NC(=O)OCc1ccccc1.[I-]
EC50 [6]: 13 µM
Ratio Ki [7]: 40
EC50 (Trypanosoma cruzi [9]): 8.7 µM
K [3]: 0.037 mM⁻¹ s⁻¹
EC50 [10]: 6.6 µM
selectivity ratio [11]: > 10
CC50 (NHDF): > 100 µM
EC50 (Trypanosoma cruzi [12]): 9.9 µM
solubility [1]: >= 50 uM
Ratio Ki [14]: >= 3
Ke [4]: 7400 M⁻¹
Ratio Ki [15]: >= 3
CC50 (C2C12): > 10 µM
Ratio IC50 (Trypanosoma cruzi [17]): 10

SMILES: O=C(N[C@@H](Cc1ccccc1)C(=O)N[C@H](/C=C/c1ncco1)Cc1ccccc1)OCc1ccccc1
EC50 [6]: 27 µM
EC50 (Trypanosoma cruzi [9]): > 20 µM
CC50 (NHDF): > 100 µM

SMILES: CN1CCN(C(=O)N[C@@H](Cc2ccccc2)C(=O)N[C@H](/C=C/c2ncccn2)CCc2ccccc2)CC1
EC50 [6]: 15 µM
Ki (Cruzipain [8]): > 10 µM
EC50 (Trypanosoma cruzi [9]): 20 µM
EC50 [10]: > 20 µM

SMILES: COc1ccnc(/C=C/[C@H](CCc2ccccc2)NC(=O)[C@H](Cc2ccccc2)NC(=O)OCc2ccccc2)c1
Ki (Cruzipain [8]): > 5 µM

solubility [1]: <= 2 uM
SMILES: O=C(N[C@@H](Cc1ccccc1)C(=O)N[C@H](/C=C/c1ccc([N+](=O)[O-])cc1)Cc1ccccc1)OCc1ccccc1

SMILES: CN1CCN(C(=O)N[C@@H](Cc2ccccc2)C(=O)N[C@H](/C=C/S(=O)(=O)c2ccccc2)CCc2ccccc2)CC1 [K-777]
EC50 [6]: 1.7 µM
K [19]: 0.00028 s⁻¹
EC50 (Trypanosoma cruzi [9]): > 20 µM
EC50 [10]: 0.09 µM
CC50 (NHDF): 60 to 100 µM
EC50 (Trypanosoma cruzi [12]): 0.7 µM
EC50 (Trypanosoma cruzi [20]): 60 µM
Retention_time [5]: 4.64 min
CC50 (C2C12): > 10 µM

kinact/Ki [18]: 1700 M⁻¹ s⁻¹
SMILES: NC(=O)/C=C/[C@H](CCc1ccccc1)NC(=O)[C@H](Cc1ccccc1)NC(=O)OCc1ccccc1
